The data set is described as follows: Solubility of drug in pressure-sensitive adhesive and in liquid component. The data set is classed as physicochemical. The conditions noted are these: percent by weight.

Here are results for one molecule from patent EP0531938B1, “Acrylic gel material and gel-based medical preparation for percutaneous absorption employing the same” (NITTO DENKO CORPORATION, priority 1991, dated 1993).

SMILES strings stand for the structures.

Turning to `O=[N+]([O-])O[C@H]1CO[C@H]2[C@@H]1OC[C@H]2O[N+](=O)[O-]` [isosorbide dinitrate], the “solubility in isopropyl myristate” value is 2.1%. In addition, the “solubility in the pressure-sensitive adhesive” value (adhesive of Comparative Example 15 (95 parts 2-ethylhexyl acrylate, 5 parts acrylic acid)) is given as 7%.
